Experimental data published in ChEMBL document CHEMBL5131546, “Discovery of 1H-Pyrazole Biaryl Sulfonamides as Novel G2019S-LRRK2 Kinase Inhibitors” (ACS Med Chem Lett, 2022).

Experiments:
[1] = AUCinf in CD-1 mouse at 0.5 mg/kg, iv by LC-MS/MS analysis; type: ADME, organism-based; parameters: time infinity, dose 0.5 mg/kg, route iv; conditions: in vivo
[2] = AUCinf in CD-1 mouse at 2 mg/kg, po by LC-MS/MS analysis; type: ADME, organism-based; parameters: time infinity, dose 2 mg/kg, route po; conditions: in vivo
[3] = Cmax in CD-1 mouse at 0.5 mg/kg, iv by LC-MS/MS analysis; type: ADME, organism-based; parameters: dose 0.5 mg/kg, route iv; conditions: in vivo
[4] = Cmax in CD-1 mouse at 2 mg/kg, po by LC-MS/MS analysis; type: ADME, organism-based; parameters: dose 2 mg/kg, route po; conditions: in vivo
[5] = Tmax in CD-1 mouse at 2 mg/kg, po by LC-MS/MS analysis; type: ADME, organism-based; conditions: in vivo
[6] = Half life in CD-1 mouse at 0.5 mg/kg, iv by LC-MS/MS analysis; type: ADME, organism-based; conditions: in vivo
[7] = Half life in CD-1 mouse at 2 mg/kg, po by LC-MS/MS analysis; type: ADME, organism-based; conditions: in vivo
[8] = Volume of distribution at steady state in CD-1 mouse at 0.5 mg/kg, iv by LC-MS/MS analysis; type: ADME, organism-based; conditions: in vivo, read-out: Vdss
[9] = MRT in CD-1 mouse at 0.5 mg/kg, iv by LC-MS/MS analysis; type: ADME, organism-based; conditions: in vivo
[10] = MRT in CD-1 mouse at 2 mg/kg, po by LC-MS/MS analysis; type: ADME, organism-based; conditions: in vivo
[11] = Clearance in CD-1 mouse at 0.5 mg/kg, iv by LC-MS/MS analysis; type: ADME, organism-based; conditions: in vivo
[12] = Oral bioavailability in CD-1 mouse at 2 mg/kg by LC-MS/MS analysis; type: ADME, organism-based; conditions: in vivo
in vitro [13] = conditions: human, Caco-2
in vitro [14] = conditions: human, Caco-2; remark: listed apart in the source
in vitro [15] = conditions: mouse, liver microsomes
in vitro [16] = conditions: human, liver microsomes

AUC(0-inf) [1]: 0.58 µM·h | AUC(0-inf) [2]: 2.55 µM·h | Cmax [3]: 580 nM | Cmax [4]: 580 nM | Tmax [5]: 1 h | half-life [6]: 0.8 h | half-life [7]: 1.25 h | Vd [8]: 2 L/kg | MRT [9]: 1.01 h | MRT [10]: 3.01 h | clearance [11]: 33.5 mL/min/kg | bioavailability [12]: 111% | Papp A→B at 2 h, 10 µM (in vitro [13]): 8.78 ×10⁻⁶ cm/s | Papp B→A at 2 h, 10 µM (in vitro [14]): 27 ×10⁻⁶ cm/s | half-life at 40 min (in vitro [15]): 0.5 h | half-life at 40 min (in vitro [16]): 2.65 h
SMILES: Cc1[nH]nc(-c2ccncc2)c1-c1ccc(-c2cccc(S(N)(=O)=O)c2)c(C2CC2)c1
